How the values were obtained:
Design in all cases: species or system Female Nude mice
[1] = system: NCI-N87 xenograft (gastric cancer cell line); assay: Antitumor test in vivo, dose optimization, NCI-N87 xenograft model (Example 7); conditions: DS-1062 10 mg/kg IV single dose, AZD6738 25 mg/kg PO BID Day 1-14
Method: (§1) Female Nude mice (Envigo) aged 5-8 weeks were used, following 7 days acclimatisation before entry into the study. 5×10^6 NCI-N87 tumor cells (gastric cancer cell line) (1:1 in Matrigel) were implanted subcutaneously onto the flank of the female Nude mice. When tumors reached approximately 250 mm^3, similar-sized tumors were randomly assigned to treatment groups as shown in Table 9:
The dose of compound for each animal was calculated based on the individual body weight on the day of dosing. DS-1062 was administered as a single dose at 10 mg/kg on day 1, and AZD6738 was administered at 25 mg/kg BID as listed in Table 9.
(§2) The dosing solution for DS-1062 was prepared on the day of dosing by diluting the DS-1062 stock (20.1 mg/ml) in 25 mM histidine buffer, 9% sucrose (pH5.5) to 2 mg/ml for 10 mg/kg dosing solution. Each dosing solution was mixed well using a pipette before administration via IV injection at a dosing volume of 5 ml/kg.
(§3) DMSO (10% of the total vehicle volume) was added to the compound and mixed well with a pellet pestle. Sonication for approximately 5 minutes was required to fully dissolve the compound. […]
(§4) Tumor growth inhibition (TGI) was calculated as follows:
(§5) Statistical significance was evaluated using one-tailed t-test of (log(relative tumor volume)=log(final vol/start vol)) at the day of final measure, comparing to vehicle control. […]

[2] = system: CTG-3718 xenograft (ovarian PDX, relapsed on talazoparib); assay: Antitumor test in vivo, CTG3718 ovarian patient derived xenograft model (Example 8); conditions: CTG-3718 ovarian PDX; DS-1062 10 mg/kg IV single dose; AZD6738 25 mg/kg PO BID Day 1-14
Excerpt: (§6) Female Nude mice (Envigo) aged 5-8 weeks were used, following 7 days acclimatisation before entry into the study. The human patient-derived xenograft (PDX) model, CTG-3718, was established from fragments of freshly resected tumor of a ovarian cancer patient whom relapsed on treatment with PARP inhibitor talazoparib. This PDX was obtained in accordance with appropriate consent procedures. This ovarian PDX model was subcutaneously passaged in vivo as fragments from animal to animal in nude mice. When tumors reached approximately 250 mm^3, similar-sized tumors were randomly assigned to treatment groups as shown in Table 11:
(§7) The dose of compound for each animal was calculated based on the individual body weight on the day of dosing. DS-1062 and AZD6738 were dosed on the same day, with DS-1062 being administered approximately 5 hour post the PO dose of AZD6738. DS-1062 was administered as a single dose at 10 mg/kg on day 1, and AZD6738 was administered at 25 mg/kg BID for 14 days.
as §2, with “The” for “Each”
DMSO (10% of the total vehicle volume) was added to the compound and mixed well with a pellet pestle. […]

[3] = system: CTG-3303 xenograft (TNBC PDX, relapsed on talazoparib); assay: Antitumor test in vivo, TNBC patient derived xenograft model CTG-3303 (Example 5); conditions: CTG-3303 TNBC PDX; for TGI % day 46: DS-1062 10 mg/kg IV single dose, AZD6738 25 mg/kg PO QD 14 days; for percentage of mice achieving a complete response (tumor volume=0 mm^3): day 93 post treatment, 8 mice per group, DS-1062 10 mg/kg, AZD6738 25 mg/kg QD
Excerpt: as §6, with “mice (Charles River)” for “mice (Envigo)”, “model, CTG-3303,” for “model, CTG-3718,”, “a triple negative breast” for “a ovarian”, “cancer (TNBC)” for “cancer”, “This TNBC” for “This ovarian”, “Table 6:” for “Table 11:”
as §7, with “QD” for “BID”, “days. Duration of dosing was for 14 days.” for “days.”
(§8) The dosing solutions for DS-1062 were prepared on the day of dosing by diluting the DS-1062 stock (20.1 mg/ml) in 25 mM histidine buffer, 9% sucrose (pH5.5) to 0.6 mg/ml, and 2 mg/ml for the 3 mg/kg and 10 mg/kg dosing solutions, respectively. Each dosing solution was mixed well using a pipette before administration via IV injection at a dosing volume of 5 ml/kg.
DMSO (10% of the total vehicle volume) was added to the compound and mixed well with a pellet pestle. Sonication for approximately 5 minutes was required to fully dissolve the compound. Following which, propylene glycol (40% of the total vehicle volume) was added and mixed well using a magnetic stirrer. A volume of 10 ml of sterile water was added to the glass wheaton vial to rinse any remaining compound from the vial then transferred to the glass bottle. The remaining volume of sterile water in total (50% of the final vehicle volume) was added to the glass bottle and mixed well using a magnetic stirrer. The dosing solution was protected from light and kept at room temperature for up to 7 days being continually mixed. The final dosing matrix for 25 mg/kg AZD6738 was a clear solution with a faint yellow hue.
Values shown are geometric mean±SEM; n=8 for all treatment groups. The mice which had reached the humane endpoint (e.g. large tumor burden) during the study were removed from the group and the remaining mice were used for the calculation of the TGI.

[4] = system: NCI-N87 xenograft (gastric cancer cell line); assay: Antitumor test in vivo, NCI-N87 xenograft model (Example 4); conditions: DS-1062 10 mg/kg IV single dose, AZD6738 25 mg/kg PO QD 14 days
Method: as §1, with “(Charles River)” for “(Envigo)”, “4:” for “9:”
as §7, with “QD” for “BID”, “days. Duration of dosing was for 14 days.” for “days.”
as §8, with “ml/kg. […]” for “ml/kg.”
as §4, §5

[5] = system: N87-DS-1062 resistant tumor cell xenograft (gastric cancer cell line); assay: Antitumor test in vivo, N87 DS-1062 resistant model (Example 9); conditions: N87-DS-1062 resistant xenograft; DS-1062 10 mg/kg IV single dose; AZD6738 25 mg/kg PO BID Day 1-7
Method: as §1, with “(Charles River)” for “(Envigo)”, “N87-DS-1062 resistant” for “NCI-N87”, “13:” for “9:”
as §7, with “7” for “14”
as §2, with “The” for “Each”
as §3, with “compound. Following which, propylene glycol (40% of the total vehicle volume) was added and mixed well using a magnetic stirrer.” for “compound.”

C[C@@H]1COCCN1c1cc(C2([S@](C)(=N)=O)CC2)nc(-c2ccnc3[nH]ccc23)n1 [AZD6738, 4-{4-[(3R)-3-Methylmorpholin-4-yl]-6-[1-((R)-S-methylsulfonimidoyl)cyclopropyl]pyrimidin-2-yl}-1H-pyrrolo[2,3-b]pyridine]
TGI % day 42 [1]: 23.7%
TGI % day 22 [2]: −25.7%
TGI % day 46 [3]: 2.3%
percentage of mice achieving a complete response (tumor volume=0 mm^3) [3]: 0%
TGI % day 33 [4]: 30.1%
TGI % day 21 [5]: −9.8%

B1: DS-1062: anti-TROP2 antibody-drug conjugate; exatecan-derivative drug-linker conjugated to the anti-TROP2 antibody via a thioether bond; DAR ~4 (conjugate, chains of the INN, looked up)
VH: QVQLVQSGAEVKKPGASVKVSCKASGYTFTTAGMQWVRQAPGQGLEWMGWINTHSGVPKYAEDFKGRVTISADTSTSTAYLQLSSLKSEDTAVYYCARSGFGSSYWYFDVWGQGTLVTVSS
VL: DIQMTQSPSSLSASVGDRVTITCKASQDVSTAVAWYQQKPGKAPKLLIYSASYRYTGVPSRFSGSGSGTDFTLTISSLQPEDFAVYYCQQHYITPLTFGQGTKLEIK
modifications: exatecan-derivative drug-linker, DAR ~4
TGI % day 42 [1]: 74.8%
TGI % day 22 [2]: 69.8%
TGI % day 46 [3]: 88.2%
percentage of mice achieving a complete response (tumor volume=0 mm^3) [3]: 0%
TGI % day 33 [4]: 84.1%
TGI % day 21 [5]: 0.77%

Reference: patent publication US20250064967A1, “COMBINATION OF ANTIBODY-DRUG CONJUGATE AND ATR INHIBITOR” (AstraZeneca UK Limited, priority 2021, published 2025)
